Drawing on the supplement of paper PMC10307832, this text covers relative viability for 1 cell line.

What all share (assay): relative viability (nuclei count vs DMSO), 5 days (fraction); higher = more cells survive
Compound in the assay “IDH-C35 + Decitabine”: Cc1ccccc1C(C(=O)NC1CCCCC1)N(C(=O)Cn1ccnc1C)c1cccc(F)c1 [IDH-C35] + Nc1ncn([C@H]2C[C@H](O)[C@@H](CO)O2)c(=O)n1 [Decitabine] (partner 2 µM)
The essentials:
(§1)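 Five library-drug doses in √10 steps were combined with a fixed anchor-drug dose, or a single drug was given alone, by pin tool to lung cancer cell lines in 1536-well plates the day after seeding. Nuclei were stained and counted after 5 days. Relative viability is the nuclei count in treated wells over that in vehicle wells, taken as the median of duplicate plates.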

Compound in assay [1]: CC1=C(C(=NN1)C)CC2=C(C3=C(S2)N(C(=O)N(C3=O)C)CC(C)C)C(=O)N4C[C@@H](CO4)O + CC(C)C[C@H](NC(=O)[C@H](Cc1ccccc1)NC(=O)c1cnccn1)B(O)O [Bortezomib] (partner 0.002 µM)
The essentials:
as §1

Compound in the assay “IDH-C35 + OSI-027”: Cc1ccccc1C(C(=O)NC1CCCCC1)N(C(=O)Cn1ccnc1C)c1cccc(F)c1 [IDH-C35] + COc1cccc2cc(-c3nc([C@H]4CC[C@H](C(=O)O)CC4)n4ncnc(N)c34)[nH]c12 [OSI-027] (partner 0.5 µM)
An outline of the steps:
as §1

Compound in assay [2]: CC1=C(C(=NN1)C)CC2=C(C3=C(S2)N(C(=O)N(C3=O)C)CC(C)C)C(=O)N4C[C@@H](CO4)O + O=C(CCCCCCC(=O)Nc1ccccc1)NO [Vorinostat] (partner 1 µM)
An outline of the steps: as §1

In the case of UMC-11, the relative viability with IDH-C35 + Decitabine (first compound 0.08 µM) worked out at 0.572; with IDH-C35 + Decitabine (first compound 0.253 µM) it was 0.724; in the assay with IDH-C35 + Decitabine (first compound 0.8 µM) it was 0.576; in the assay with IDH-C35 + Decitabine (first compound 2.53 µM), 0.609; with IDH-C35 + Decitabine (first compound 8 µM), 0.619; in assay [1] (first compound 0.0025 µM), 0.667. Moreover, the relative viability came out at 0.189 in assay [1] (first compound 0.007906 µM); 0.173 in assay [1] (first compound 0.025 µM); 0.22 in assay [1] (first compound 0.07906 µM); 0.32 in assay [1] (first compound 0.25 µM); 0.444 with IDH-C35 + OSI-027 (first compound 0.08 µM); 0.47 with IDH-C35 + OSI-027 (first compound 0.253 µM). For the same cell line, the relative viability in the assay with IDH-C35 + OSI-027 (first compound 0.8 µM) worked out at 0.473; in the assay with IDH-C35 + OSI-027 (first compound 2.53 µM), 0.482; in the assay with IDH-C35 + OSI-027 (first compound 8 µM), 0.463; in assay [2] (first compound 0.0025 µM), 0.41; in assay [2] (first compound 0.007906 µM), 0.429; in assay [2] (first compound 0.025 µM), 0.396. In addition, the relative viability was 0.464 in assay [2] (first compound 0.07906 µM) and 0.424 in assay [2] (first compound 0.25 µM).
